{
  "source": "paper PMC7497692",
  "about": "(Investigational New Drugs, 2020)",
  "key": {"[1]": {"test": "Mass balance: excretion of radioactivity in urine and feces after oral [14C]-tepotinib (part A)", "type": "in vivo, human healthy male volunteers", "procedure": "(§1) Participants were hospitalized from day 1 to day 16 of the study, and further assessed on days 19, 22, and 25 (trial end). […] Pre-dose feces and urine samples were collected on day 1 and day 2, respectively. Urine was collected at 4- to 12-h intervals on day 1 and every 24 h thereafter up to day 16. Feces were collected every 24 h up to day 16. Provision was made to collect further samples up to day 39 if >1% of the administered dose was detectable in the total (urine and feces) excreta per day on two consecutive measurements.\nTotal radioactivity in blood, plasma, urine, and feces samples, and quick counts in urine and feces samples were determined at the bioanalytical laboratory of PRA (Assen, The Netherlands) using liquid scintillation counting (LSC). Scintillation cocktail Ultima Gold™ (5 mL; Perkin Elmar, Waltham, Massachusetts, USA) was directly spiked into 250 μL plasma and 1000 μL urine samples, respectively, whereas 300 μL aliquots of blood samples were solubilized and decolorized before adding 18 mL of the scintillation cocktail prior to LSC. Feces samples were (quantitatively) homogenized with one or two weight equivalents of water, and an accurately weighted aliquot of approximately 500 mg of the homogenate was dried at 50 °C for at least 3 h. After addition of 100 μL combustion aid, the dried samples were combusted in a sample oxidizer model 307 (Perkin Elmer, Waltham, Massachusetts, USA) using 7 mL CarboSorb® E as an absorber agent for carbon dioxide. At the end of the combustion cycle, the absorber was mixed with 13 mL of the scintillant PermaFluor® E. All scintillation counting using either low-level or normal count modes was carried out in duplicate using a Tri-Carb 3100 TR liquid scintillation analyzer (Perkin Elmer, Waltham, Massachusetts, USA), in compliance with analytical procedures validated by the PRA.\n(§2) The maximum plasma concentration (Cmax) and time to reach maximum concentration (tmax) were derived directly from the plasma concentration–time data. Lag time (tlag) was the time prior to the first measurable (non-zero) concentration. The area under the plasma concentration–time curve from 0 to t (last measurable concentration; AUC0–t) was calculated using a mixed log–linear trapezoidal method. Area under the plasma concentration–time curve until the last sampling time (AUCall), which corresponds to AUC0–240 h within the observation period, was used for metabolite calculations. Amounts excreted in urine, feces, and total (urine + feces) were calculated as the sum of amounts (concentration multiplied by volume) for each collection from time 0 to time t. The terminal rate constant (λz) was used to estimate the terminal half-life (t½) (ln 2/λz), and the area under the concentration–time curve from time 0 to infinity (AUC0–∞). Total body clearance (CL) and apparent body clearance (CL/f) were determined by dose/AUC0–∞, and total volume of distribution (Vz) and apparent volume of distribution (Vz/f) were calculated by dose/(AUC0–∞*λz) after IV and oral administration, respectively. Volume of distribution of the central compartment (Vc) was derived by dividing the dose by the initial drug plasma concentration after IV administration. Absolute bioavailability was calculated as F = (AUCoral/doseoral)/(AUCIV/doseIV) × 100. The ratios (%) AUCtepotinib or metabolite/AUCtotal radioactivity were calculated as a percentage of the molar AUCs."}, "[2]": {"set-up": "method as in PMID 23553846", "conditions": "xenograft mice; cited from earlier work"}, "[3]": {"test": "Metabolite profiling and identification in plasma, urine and feces (part A)", "type": "in vivo, human healthy male volunteers", "conditions": "oral part A", "procedure": "as §1\nMetabolite profiling and structure elucidation in plasma, urine, and feces were performed at the Institute of Drug Metabolism and Pharmacokinetics, Merck KGaA, Grafing, Germany, using a radiometric UPLC method coupled to a high-resolution MS. For urine and feces, metabolites were identified in a single pooled sample per matrix and subject (urine pool of 4–120 h and feces pool of 0–192 h), that covered at least 90% of the total radioactivity of the respective matrix excreted. Intervals with low radioactivity were not used for the generation of the pooled samples to avoid dilution, and to increase the signal-to-noise ratio of the respective chromatograms.\nThe metabolite structure elucidation was performed using the linear trap quadrupole Orbitrap XL hybrid Fourier transform (FT) MS (Thermo Scientific, Dreieich, Germany) coupled to a Waters Acquity UPLC system. Full-scan FT spectra were acquired for measurement of the masses of molecular ions of parent and metabolites. MS^2 fragmentation spectra were acquired after high-energy collisional dissociation of the appropriate molecular ions. Allocation and confirmation of the proposed metabolites to the radioactive peaks were performed using an API4000 QTrap (AB Sciex, Darmstadt, Germany) MS with simultaneous splitting using a fraction collection system (CTC HTS PAL Fraction Collector, Axel Semrau, Sprockhövel, Germany), and offline radioactive measurement using a Topcount NXT® microplate scintillation counter (PerkinElmer, Rodgau, Germany).\nas §2"}, "[4]": {"test": "Safety assessment (TEAEs, NCI-CTCAE v4.0)", "type": "in vivo, human healthy male volunteers", "procedure": "Treatment-emergent adverse events (TEAEs), changes in laboratory tests, ECG, vital signs, and physical examinations were assessed and graded using the National Cancer Institute Common Terminology Criteria for Adverse Events (NCI-CTCAE) version 4.0. All safety endpoints across both parts of the study were analyzed descriptively."}, "[5]": {"set-up": "method as in printed", "conditions": "preclinical results, bile-canaliculated rats, [14C]-tepotinib; ref not given; cited from earlier work"}, "[6]": {"set-up": "method as in PMID 31822497", "conditions": "patients with solid tumors; cited from earlier work"}, "[7]": {"conditions": "geometric mean of n=6, % of total radioactive dose, oral part A, listed as [^14C]-tepotinib"}, "[8]": {"conditions": "individual subjects 1–6, % of total radioactive dose, single oral 498 mg tepotinib + 2.67 MBq [14C]-tepotinib"}, "[9]": {"conditions": "maximum of n=6, % of total radioactive dose, oral part A"}, "[10]": {"conditions": "median of n=6, % of total radioactive dose, oral part A, listed as [^14C]-tepotinib"}, "[11]": {"conditions": "minimum of n=6, % of total radioactive dose, oral part A"}, "[12]": {"conditions": "range of n=6, % of oral [14C]-tepotinib dose"}},
  "note": "Several values for one entry are separate records, joined by “and”; a condition that tells them apart may be missing. Equal entries are not always repeated.",
  "data": [
    {"smiles": "CN1CCC(COc2cnc(-c3cccc(Cn4nc(-c5cccc(C#N)c5)ccc4=O)c3)nc2)CC1", "note": "[Tepotinib]", "values": [
      {"measurement": "time up to which radioactivity was observed in urine", "setting": "[1]; after dosing, below LLOQ at 312 and 336 h in two participants", "result": "up to 360 h"},
      {"measurement": "time of first radioactivity detected in feces", "setting": "[1]; after oral dose, part A", "result": "24 to 48", "unit": "h"},
      {"measurement": "time within which radioactivity was observed in urine", "setting": "[1]; first collection period, part A", "result": "≤ 4", "unit": "h"},
      {"measurement": "Ae0–t total, Geometric mean", "setting": "[1]; geometric mean of n=6, % of total radioactive dose, oral part A", "result": 91.90, "unit": "%"},
      {"measurement": "Ae0–t feces, Geometric mean", "setting": "[1]; [7]", "result": "77.9% and 77.87%"},
      {"measurement": "Ae0–t urine, Geometric mean", "setting": "[1]; [7]", "result": "13.6% and 13.61%"},
      {"measurement": "radioactivity not recovered", "setting": "[1]; geometric mean, pie chart Fig. 1, oral part A", "result": 8.5, "unit": "%"},
      {"measurement": "Ae0–t feces", "setting": "[1]; [8]", "result": "79.48% and 77.92% and 69.40% and 76.89% and 82.53% and 81.76%"},
      {"measurement": "Ae0–t total (urine + feces)", "setting": "[1]; [8]", "result": "88.28% and 91.60% and 87.12% and 93.36% and 94.46% and 96.93%"},
      {"measurement": "Ae0–t urine", "setting": "[1]; [8]", "result": "8.80% and 13.68% and 17.72% and 16.47% and 11.93% and 15.17%"},
      {"measurement": "Ae0–t feces, Max", "setting": "[1]; [9]", "result": 82.53, "unit": "%"},
      {"measurement": "Ae0–t total, Max", "setting": "[1]; [9]", "result": 96.93, "unit": "%"},
      {"measurement": "Ae0–t urine, Max", "setting": "[1]; [9]", "result": 17.72, "unit": "%"},
      {"measurement": "Ae0–t feces, Median", "setting": "[1]; [10]", "result": 78.7, "unit": "%"},
      {"measurement": "Ae0–t total, Median", "setting": "[1]; [10]", "result": "92.5% and 92.48%"},
      {"measurement": "Ae0–t urine, Median", "setting": "[1]; [10]", "result": "14.4% and 14.43%"},
      {"measurement": "Ae0–t feces, Min", "setting": "[1]; [11]", "result": 69.40, "unit": "%"},
      {"measurement": "Ae0–t total, Min", "setting": "[1]; [11]", "result": 87.12, "unit": "%"},
      {"measurement": "Ae0–t urine, Min", "setting": "[1]; [11]", "result": 8.80, "unit": "%"},
      {"measurement": "time up to which excretion of radioactivity in feces was noted", "setting": "[1]; post-dose, all participants, part A", "result": "up to 360 h"},
      {"measurement": "radioactivity excreted in feces, range", "setting": "[1]; [12]", "result": "69.4–82.5%"},
      {"measurement": "radioactivity excreted in urine, range", "setting": "[1]; [12]", "result": "8.8–17.7%"},
      {"measurement": "[14C]-tepotinib dose recovered in excreta per day", "setting": "[1]; two consecutive measurements, days 15 and 16, all subjects", "result": "< 1", "unit": "%"},
      {"measurement": "tumor versus plasma concentration", "setting": "[2]", "result": "higher concentrations in xenograft tumors than in the plasma of mice"},
      {"measurement": "% of total radioactive administered dose excreted in feces or urine (excreta)", "setting": "[3]; feces plus urine", "result": 52, "unit": "%"},
      {"measurement": "% of total administered radioactive dose excreted in feces", "setting": "[3]; feces pool 0–192 h", "result": 45, "unit": "%"},
      {"measurement": "% of AUCall of total 14C-radioactivity in plasma", "setting": "[3]; plasma, AUCall = AUC0–240 h, molar AUC ratio", "result": 55, "unit": "%"},
      {"measurement": "% of total administered radioactive dose excreted in urine", "setting": "[3]; urine pool 4–120 h", "result": 7, "unit": "%"},
      {"measurement": "number of TEAEs of grade one severity", "setting": "[4]; NCI-CTCAE, of 19 TEAEs", "result": 17},
      {"measurement": "deaths, serious or other significant adverse events", "setting": "[4]; both parts", "result": "neither deaths, serious adverse events, nor other significant adverse events were reported"},
      {"measurement": "volunteers who experienced TEAEs", "setting": "[4]; both parts, single 500 mg dose", "result": 75, "unit": "%"},
      {"measurement": "healthy volunteers who experienced TEAEs", "setting": "[4]; both parts, single oral 500 mg", "result": "Nine of 12"},
      {"measurement": "number of TEAEs", "setting": "[4]; in nine of 12 volunteers", "result": 19},
      {"measurement": "number of TEAEs judged treatment related", "setting": "[4]; of 19 TEAEs", "result": "Eight"},
      {"measurement": "tolerability", "setting": "[4]; single oral dose of 500 mg, healthy volunteers", "result": "well tolerated"},
      {"measurement": "biliary excretion of radioactivity", "setting": "[5]", "result": "a predominant fraction of radioactivity is excreted unchanged via the bile"},
      {"measurement": "maximum tolerated dose (not reached at doses administered)", "setting": "[6]", "result": "> 1400", "unit": "mg/day"}
    ]}
  ]
}
